Data taken from patent US20250304551A1 (SHANGHAI APEIRON THERAPEUTICS COMPANY LIMITED, priority 2022, published 2025).

Experiments:
HT29 cells = assay: CyQuant cell proliferation activity test, HT29; format: cell-based; details: Homo sapiens, HT-29, 72 h, HT29 2000 cells per well, 3 days incubation, initial concentration 3000 nM, IC50 by XLFIT, read-out: HT-29 Cell Viability_IC50_nM
How it was run: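 HT29 cells (2000/well, RPMI-1640 with 10% FBS) were plated overnight, then exposed to compound for 3 days at 37 °C, 5% CO2. Dosing was 9 concentrations, 3-fold dilutions from 3000 nM, in 0.20% DMSO. Proliferation was read with CyQuant reagent after 1 h, and IC50 derived from the curves.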

OVCAR3 cells = assay: Cell proliferation activity test, OVCAR3 (CyQUANT Direct); format: cell-based; details: Homo sapiens, OVCAR-3, 72 h, 3 days incubation, CyQUANT fluorescence detection, read-out: OVCAR-3 Cell Viability_IC50_nM
How it was run: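 OVCAR3 cells seeded overnight, then exposed to compounds at 0-10 μM final (0.20% DMSO) for 3 days at 37° C. Cell number read by CyQUANT Direct fluorescence after 60 min at 37° C.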

[1] = biological target: T1, Human KIF18A (amino acid sequence 1-417) (Homo sapiens, UniProt Q8NI77); assay: Enzyme activity detection experiment (ADP-Glo, KIF18A with tubulin and ATP); format: biochemical; details: tubulin 60 μg/mL, ATP 25 μM, KIF18A protein 2.5 nM, 120 minutes at ambient temperature, ADP-Glo chemiluminescence
T1 construct: purchased Viva Biotech (Shanghai) Ltd
T1 sequence (Q8NI77 1-417): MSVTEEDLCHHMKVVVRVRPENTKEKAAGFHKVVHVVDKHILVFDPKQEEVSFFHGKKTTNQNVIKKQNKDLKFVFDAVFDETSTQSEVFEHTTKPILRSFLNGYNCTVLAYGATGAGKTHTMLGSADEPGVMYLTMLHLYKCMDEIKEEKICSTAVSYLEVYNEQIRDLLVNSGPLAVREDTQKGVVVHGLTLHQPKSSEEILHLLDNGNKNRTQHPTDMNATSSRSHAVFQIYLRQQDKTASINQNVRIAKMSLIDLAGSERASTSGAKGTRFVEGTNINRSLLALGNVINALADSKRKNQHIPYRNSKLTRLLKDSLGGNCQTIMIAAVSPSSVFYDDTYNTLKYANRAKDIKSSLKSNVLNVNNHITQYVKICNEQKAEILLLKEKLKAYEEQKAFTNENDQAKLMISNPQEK
T1 sequence (Q2XVP4 whole entry partner): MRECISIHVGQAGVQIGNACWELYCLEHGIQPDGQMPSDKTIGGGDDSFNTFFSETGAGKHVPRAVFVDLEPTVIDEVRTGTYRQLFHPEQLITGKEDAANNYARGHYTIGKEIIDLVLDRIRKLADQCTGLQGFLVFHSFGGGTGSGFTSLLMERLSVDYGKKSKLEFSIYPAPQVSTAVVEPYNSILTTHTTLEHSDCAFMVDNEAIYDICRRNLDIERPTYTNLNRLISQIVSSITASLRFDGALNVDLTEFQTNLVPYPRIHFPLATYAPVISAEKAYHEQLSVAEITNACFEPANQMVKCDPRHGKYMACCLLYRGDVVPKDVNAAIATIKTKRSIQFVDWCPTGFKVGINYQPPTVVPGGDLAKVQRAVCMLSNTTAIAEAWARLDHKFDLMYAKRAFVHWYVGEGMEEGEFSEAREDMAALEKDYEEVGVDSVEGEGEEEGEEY
T1 sequence (P02554 whole entry partner): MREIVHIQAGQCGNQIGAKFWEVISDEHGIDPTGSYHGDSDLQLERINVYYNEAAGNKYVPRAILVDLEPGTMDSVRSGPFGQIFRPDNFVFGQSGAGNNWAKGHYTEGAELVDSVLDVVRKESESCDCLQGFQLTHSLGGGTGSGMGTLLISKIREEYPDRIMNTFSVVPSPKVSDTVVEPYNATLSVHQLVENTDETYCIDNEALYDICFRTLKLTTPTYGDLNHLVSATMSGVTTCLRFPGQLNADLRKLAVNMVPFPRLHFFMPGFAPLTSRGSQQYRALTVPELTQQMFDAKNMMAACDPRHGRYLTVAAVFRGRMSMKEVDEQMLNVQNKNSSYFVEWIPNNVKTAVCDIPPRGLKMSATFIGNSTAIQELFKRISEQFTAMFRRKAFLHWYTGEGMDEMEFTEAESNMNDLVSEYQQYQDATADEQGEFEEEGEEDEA
How it was run: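 KIF18A (2.5 nM) was incubated with tubulin (60 μg/mL as added), ATP (25 μM) and serially diluted compound for 120 min at ambient temperature. ADP formed was detected by ADP-Glo: reagent for 30 min, then detection reagent for 30 min in the dark, with chemiluminescence read-out.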

| Compound | IC50 (HT29 cells) | IC50 (OVCAR3 cells) | IC50 [1] |
| --- | --- | --- | --- |
| Cc1cc(-c2cn(-c3ccc(NS(=O)(=O)CCO)cc3N3CCC(=C(F)F)CC3)nn2)nc(N2CCC(F)(F)CC2)n1 [Example 88, N-{3-[4-(difluoromethylidene)piperidin-1-yl]-4-{4-[2-(4,4-difluoropiperidin-1-yl)-6-methylpyrimidin-4-yl]-1H-1,2,3-triazol-1-yl}phenyl}-2-hydroxyethane-1-sulfonamide] | 0.052 µM | 0.029 µM | 0.118 µM |
| Cc1cc(-n2cc(-c3ccc(NS(=O)(=O)CCO)cc3N3CCC4(CC3)CC4)nn2)nc(N2CCC(F)(F)CC2)n1 [Example 89, N-(4-(1-(2-(4,4-difluoropiperidin-1-yl)-6-methylpyrimidin-4-yl)-1H-1,2,3-triazol-4-yl)-3-(6-azaspiro[2.5]octan-6-yl)phenyl)-2-hydroxyethanesulfonamide] | 0.04 µM | 0.036 µM | 0.061 µM |
| COc1cc(-n2cc(-c3ccc(NS(=O)(=O)CCO)cc3N3CCC4(CC3)CC4)nn2)nc(N2CCC(F)(F)CC2)n1 [Example 90, N-(3-{6-azaspiro[2.5]octan-6-yl}-4-{1-[2-(4,4-difluoropiperidin-1-yl)-6-methoxypyrimidin-4-yl]-1H-1,2,3-triazol-4-yl}phenyl)-2-hydroxyethane-1-sulfonamide] | 0.062 µM | 0.044 µM | 0.016 µM |
| Cc1cc(-n2cc(-c3ccc(NS(=O)(=O)CCO)cc3N3CCC4(CC3)CC4)nn2)cc(N2CCC(F)(F)CC2)n1 [Example 91] | 0.126 µM | 0.087 µM | 0.278 µM |
| Cc1cc(-n2cc(-c3ccc(NS(=O)(=O)[C@H](C)CO)cc3N3CCC4(CC3)CC4)nn2)nc(N2CCC(F)(F)CC2)n1 [Example 92, (2R)—N-(3-{6-azaspiro[2.5]octan-6-yl}-4-{1-[2-(4,4-difluoropiperidin-1-yl)-6-methylpyrimidin-4-yl]-1H-1,2,3-triazol-4-yl}phenyl)-1-hydroxypropane-2-sulfonamide] | 0.05 µM | 0.093 µM | 0.232 µM |
| Cc1cc(-n2cc(-c3ccc(NS(=O)(=O)[C@@H](C)CO)cc3N3CCC4(CC3)CC4)nn2)nc(N2CCC(F)(F)CC2)n1 [Example 93, (2S)—N-(3-{6-azaspiro[2.5]octan-6-yl}-4-{1-[2-(4,4-difluoropiperidin-1-yl)-6-methylpyrimidin-4-yl]-1H-1,2,3-triazol-4-yl}phenyl)-1-hydroxypropane-2-sulfonamide] | 0.083 µM | 0.085 µM | 0.315 µM |
| O=S(=O)(CCO)Nc1ccc(-c2cn(-c3cc(N4CCC(F)(F)CC4)c4ncccc4c3)nn2)c(N2CCC3(CC2)CC3)c1 [Example 94, N-(4-(1-(8-(4,4-difluoropiperidin-1-yl)quinolin-6-yl)-1H-1,2,3-triazol-4-yl)-3-(6-azaspiro[2.5]octan-6-yl)phenyl)-2-hydroxyethane-1-sulfonamide] | 0.057 µM | 0.092 µM | 0.227 µM |
